Here are results for two compounds from BindingDB's records for doi:10.1016/j.bmcl.2004.02.007 (Research Triangle Institute, 2004).

For experiment [1], the target named is Neuronal acetylcholine receptor subunit alpha-4/beta-2 (Rattus norvegicus, UniProt P09483+P12390). As to the kind of experiment: Binding affinity towards rat Nicotinic acetylcholine receptor alpha4-beta2 expressed in Xenopus oocytes using [3H]epibatidine as radioligand.
The target in experiment [2] is Neuronal acetylcholine receptor subunit alpha-3/beta-2 (Rattus norvegicus, UniProt P12390+P04757). Briefly: Binding affinity towards rat Nicotinic acetylcholine receptor alpha3-beta2 expressed in Xenopus oocytes using [3H]epibatidine as radioligand.
Chain of Neuronal acetylcholine receptor subunit alpha-3/beta-2 (P12390 whole entry): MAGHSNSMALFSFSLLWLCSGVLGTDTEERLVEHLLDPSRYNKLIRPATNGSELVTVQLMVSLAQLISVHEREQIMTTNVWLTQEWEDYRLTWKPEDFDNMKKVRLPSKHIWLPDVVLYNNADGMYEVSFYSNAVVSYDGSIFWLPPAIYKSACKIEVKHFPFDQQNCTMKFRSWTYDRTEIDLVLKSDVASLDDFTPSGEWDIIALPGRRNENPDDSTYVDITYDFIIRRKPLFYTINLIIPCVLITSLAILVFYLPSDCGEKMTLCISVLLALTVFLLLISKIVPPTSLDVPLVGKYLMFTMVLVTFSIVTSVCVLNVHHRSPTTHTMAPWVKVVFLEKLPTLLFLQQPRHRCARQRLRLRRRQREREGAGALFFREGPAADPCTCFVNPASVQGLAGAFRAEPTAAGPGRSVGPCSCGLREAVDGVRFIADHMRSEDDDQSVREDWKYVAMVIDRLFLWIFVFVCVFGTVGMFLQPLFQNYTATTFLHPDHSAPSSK
Chain of Neuronal acetylcholine receptor subunit alpha-3/beta-2 (P04757 whole entry): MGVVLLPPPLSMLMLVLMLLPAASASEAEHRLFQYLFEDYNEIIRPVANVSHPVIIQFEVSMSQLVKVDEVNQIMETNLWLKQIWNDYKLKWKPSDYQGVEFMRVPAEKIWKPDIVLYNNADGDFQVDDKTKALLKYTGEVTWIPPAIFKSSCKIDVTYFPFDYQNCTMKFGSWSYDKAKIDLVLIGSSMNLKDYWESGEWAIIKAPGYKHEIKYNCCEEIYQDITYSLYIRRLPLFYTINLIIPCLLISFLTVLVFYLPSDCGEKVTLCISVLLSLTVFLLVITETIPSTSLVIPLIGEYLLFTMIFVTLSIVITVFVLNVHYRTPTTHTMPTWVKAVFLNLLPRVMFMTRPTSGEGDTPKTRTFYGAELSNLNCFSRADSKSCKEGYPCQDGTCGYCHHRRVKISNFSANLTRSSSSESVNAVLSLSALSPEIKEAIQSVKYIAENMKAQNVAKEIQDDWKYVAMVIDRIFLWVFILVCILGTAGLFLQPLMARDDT

Chain of Neuronal acetylcholine receptor subunit alpha-4/beta-2 (P09483 whole entry): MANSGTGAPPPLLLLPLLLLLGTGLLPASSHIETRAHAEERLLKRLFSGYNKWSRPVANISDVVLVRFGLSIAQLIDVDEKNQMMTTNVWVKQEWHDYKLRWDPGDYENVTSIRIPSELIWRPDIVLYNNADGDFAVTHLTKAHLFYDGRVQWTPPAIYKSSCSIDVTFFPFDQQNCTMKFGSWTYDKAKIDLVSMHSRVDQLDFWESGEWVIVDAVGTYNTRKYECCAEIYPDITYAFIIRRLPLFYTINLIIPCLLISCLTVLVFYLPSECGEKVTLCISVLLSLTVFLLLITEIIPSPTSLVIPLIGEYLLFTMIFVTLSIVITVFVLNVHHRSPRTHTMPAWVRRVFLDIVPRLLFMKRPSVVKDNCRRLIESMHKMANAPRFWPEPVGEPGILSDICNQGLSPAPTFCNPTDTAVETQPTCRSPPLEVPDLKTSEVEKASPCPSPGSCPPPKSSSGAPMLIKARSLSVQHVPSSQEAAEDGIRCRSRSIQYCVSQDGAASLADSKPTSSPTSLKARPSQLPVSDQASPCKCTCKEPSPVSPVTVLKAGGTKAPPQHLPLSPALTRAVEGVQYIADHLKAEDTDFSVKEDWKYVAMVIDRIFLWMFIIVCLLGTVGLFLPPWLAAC
Chain of Neuronal acetylcholine receptor subunit alpha-4/beta-2 (P12390 whole entry): as the sequence (P12390 whole entry) above

As a reminder, the Ki is the dissociation constant of the complex between target and ligand, obtained from inhibition or displacement. `c1cncc(C2CC3CCC2N3)c1` (configuration not stated) [2-(pyridin-3-yl)-7-aza-bicyclo[2.2.1]heptane]: the affinity in experiment [1], expressed as Ki, was 9 pM.
On to `Fc1ccc(C2CC3CCC2N3)cn1` [(R)-2-(6-Fluoro-pyridin-3-yl)-7-aza-bicyclo[2.2.1]heptane], for which the inhibition constant (Ki) in experiment [2] came out at 4 pM.
